In US20090203701A1, “PROPHYLACTIC AND/OR THERAPEUTIC AGENT FOR RHEUMATOID ARTHRITIS” (KOWA CO., LTD, priority 2006, published 2009):

Tested on: rat collagen-induced arthritis model
Experiment: Edema suppression in both hindlimbs, rat collagen-induced arthritis model
Assay type: in vivo
Design: key to Edema Index: sum of both hindlimb edema volumes on days 14, 18, 22, 26
Conditions: for Relative index: control group = 1.000; for Edema Index: average ± standard error
Procedure: For the cases of combined administration and respective single drug administrations of 2-benzyl-5-(4-chlorophenyl)-6-[4-(methylthio)phenyl]-2H-pyridazin-3-one and atorvastatin calcium hydrate, the effect of edema suppression in both hindlimbs was determined by the following method (rat collagen-induced arthritis model) (FDA, CBER, CDER, CDRH: Guidance for industry—Clinical development programs for drugs, devices, and biological products for the treatment of rheumatoid arthritis (RA)—.(1999)).
For the test animal, female Lewis rats (LEW/Crj) (obtained from Charles River Laboratories Japan, Inc.) were used.
For each 8-week-old LEW/Crj rat, the volume of a portion from the ankle to the toe tip of both hindlimbs (hereinafter, both hindlimbs volume) was measured by means of a plethysmometer for small animals (TK-101CMP, product of Unicom), and the total volume was taken as the both hindlimbs volume upon initiation of test (hereinafter, Pre value). This Pre value was used as an index to divide the rats into groups by randomized block design by the single variable, so that the values in the respective groups averaged out.
The collagen emulsion for sensitization that was used to induce arthritis in rats, was prepared by homogenizing a 0.3% Type II collagen solution (Collagen Research Center), Adjuvant Peptide (Peptide Institute, Inc.) and Adjuvant Incomplete Freund (DIFCO), using a Handy Micro Homogenizer (Microtec Nition, Co., Ltd.) under ice-cooling. The collagen emulsion thus prepared was intracutaneously administered at 10 sites in the back of each rat at a dose of 0.1 mL/site, to perform initial sensitization of the rat. Seven days after the initial sensitization, 0.12 mL of the same collagen emulsion was intracutaneously administered to the root of tail in each rat, to perform booster sensitization.
Drug administration was conducted from the day after the initial sensitization through 26 days thereafter. The group for sole administration of 2-benzyl-5-(4-chlorophenyl)-6-[4-(methylthio)phenyl]-2H-pyridazin-3-one (Drug A) was orally administered with the drug at 3 mg/kg, twice a day, in the morning (9:00 to 11:00) and in the evening (15:30 to 17:30). The group for sole administration of atorvastatin calcium hydrate (Drug B1) was orally administered with the drug at 30 or 100 mg/kg, once a day, in the afternoon (11:30 to 13:30). On the other hand, the group for combined administration of Drug A and Drug B1 was orally administered with Drug A at 3 mg/kg in the morning (9:00 to 11:00) and in the evening (15:30 to 17:30), and with Drug B1 at 30 or 100 mg/kg in the afternoon (11:30 to 13:30).
14, 18, 22 and 26 days after the initial sensitization, the both hindlimbs volume was measured again for each rat, and the difference between each of the values and the Pre value was determined to calculate the edema volume for both hindlimbs. The sum of the edema volumes for both hindlimbs measured 14, 18, 22 and 26 days after the initial sensitization was calculated as Edema Index, and this was taken as an index for the effects of the drugs.
Table 1 and FIG. 1 present the Edema Indices of the group for sole administration of 3 mg/kg of Drug A, the group for sole administration of 30 mg/kg of Drug B1, and the group for combined administration of both drugs. Furthermore, Table 2 and FIG. 2 present the Edema Indices of the group for sole administration of 3 mg/kg of Drug A, the group for sole administration of 100 mg/kg of Drug B1, and the group for combined administration of both drugs. The Edema Index is expressed in the average value±standard error of 8 rats in each group. Furthermore, the decrease rate is indicated as ((X−Y)/X)×100 (X: average Edema Index for control group, Y: average Edema Index for each group)

Row | Structure (SMILES) | Relative index (Table 1 experiment, sole Drug A 3 mg/kg orally twice a day) | Decrease rate (%) (Table 1 experiment, sole Drug A 3 mg/kg orally twice a day, vs control group Edema Index) | Edema Index (Table 1 experiment, sole administration of Drug A 3 mg/kg orally twice a day, day 1-26 after initial sensitization, sum of edema volumes on days 14, 18, 22, 26) | Relative index (Table 2 experiment, sole Drug A 3 mg/kg orally twice a day) | Decrease rate (%) (Table 2 experiment, sole Drug A 3 mg/kg orally twice a day, vs control group) | Edema Index (Table 2 experiment, sole administration of Drug A 3 mg/kg orally twice a day, day 1-26) | Relative index (Table 1 experiment, sole Drug B1 30 mg/kg orally once a day) | Decrease rate (%) (Table 1 experiment, sole Drug B1 30 mg/kg orally once a day, vs control group) | Edema Index (Table 1 experiment, sole administration of Drug B1 30 mg/kg orally once a day, day 1-26) | Relative index (Table 2 experiment, sole Drug B1 100 mg/kg orally once a day) | Decrease rate (%) (Table 2 experiment, sole Drug B1 100 mg/kg orally once a day, vs control group) | Edema Index (Table 2 experiment, sole administration of Drug B1 100 mg/kg orally once a day, day 1-26) | Effects on edema (Edema Index), in words (sole Drug B1 at the doses of 30 and 100 mg/kg)
1 | CSc1ccc(-c2nn(Cc3ccccc3)c(=O)cc2-c2ccc(Cl)cc2)cc1 [Drug A, 2-benzyl-5-(4-chlorophenyl)-6-[4-(methylthio)phenyl]-2H-pyridazin-3-one] | 0.935 | 6.5 | 5.23 ± 0.45 | 0.790 | 21.0 | 4.89 ± 0.57 |  |  |  |  |  |  | 
2 | CC(C)c1c(C(=O)Nc2ccccc2)c(-c2ccccc2)c(-c2ccc(F)cc2)n1CC[C@@H](O)C[C@@H](O)CC(=O)O [Drug B1, atorvastatin calcium hydrate] |  |  |  |  |  |  | 1.086 | −8.6 | 6.07 ± 0.30 | 1.060 | −6.0 | 6.57 ± 0.31 | did not show any effects on edema
